≈ marks a conversion by molar mass, not a printed value.
Assays:
[1] = tested on: rat aortic smooth muscle cells; experiment: Cell proliferation assay, rat aortic smooth muscle cells (MTS); assay type: cell-based; settings: concentration required to inhibit cell proliferation by 50%, 48 hr incubation, read-out: IC50 (μg/mL) cells
Procedure: (§1) Early passage rat aortic smooth muscle cells (CV Therapeutics Cell repository) were seeded in 48 well dishes (Falcon, […]) at a density of 20,000 cells/ml of DME containing 5% heat inactivated bovine serum. The cells were incubated in a standard tissue culture incubator for 48 hr. The medium was aspirated and the wells were replenished with 0.2 ml of fresh medium. Compounds of this invention were added at concentrations ranging from 100 to 0.37 μg/ml. After 48 hr incubation, the medium was aspirated and the cultures were treated with 0.2 ml of saline 0.25 μl of phenozine methosulfate solution containing MTS (Cell Titer 96® Aqueous Non-radioactive cell proliferation assay kit, Catalog # G 5430, Promega, 2800 Woods Hollow Road, Madison, Wis. 53711-5399).

CDK2 = CDK2 (Homo sapiens, UniProt P24941); experiment: CDK2 assay (histone H1 phosphorylation, 32P-ATP filter assay); assay type: biochemical; settings: concentration required to inhibit CDK2 activity by 50%; histone H1, 30 μM ATP, 30° C., 30 min; read-out: IC50 (μg/mL) enzyme (converted)
Procedure: Compositions of this invention were assayed to determine their CDK2 inhibitory activity. The assay system (total volume of 50 μl) contained 50 mM Tris-Cl, pH 7.4, 10 mMgCl2, 5 mM DTT, 1 μg of histone H1, 30 μM ATP (1 μCi of gamma ^32P labeled ATP?), 10 μg of BSA and 1 μg of purified CDK2. After incubation at 30° C. for 30 min, the reaction was terminated by the addition of 10 μl of 10% TCA and the samples were blotted onto to nitrocellulose filters. These filters were washed extensively in 10% TCA and assayed for radioactivity. Blanks contained no enzyme. […] After incubation at 30 min., the assay tubes Were processed as above.

[2] = tested on: PupVSMC rat neonatal aortic smooth muscle cells; experiment: Cell proliferation assay, PupVSMC; assay type: cell-based; settings: Rat neonatal aortic smooth muscle cells, Table 9; the values are: IC50
Procedure: as §1
(§2) Similar assays were performed using the following cell lines; P388—mouse lymphoid neoplasm; L1210—mouse lympheytic leukemia; Caco2 human colon adenocarcinoma; MCF7 human breast adenocarcinoma; PupVSMC rat neonatal aortic smooth muscle cells; Ovcar human ovarian Carcinoma; Pancl human pancreatic adenocarcinoma; and HUVEC human umbilical cord endothelial cells.

[3] = tested on: P388 mouse lymphoid neoplasm; experiment: Cell proliferation assay, P388; assay type: cell-based; settings: P388 cells
Procedure: as §1, §2

[4] = tested on: Pancl human pancreatic adenocarcinoma; experiment: Cell proliferation assay, Panc1; assay type: cell-based; settings: Panc 1 cells
Procedure: as §1, §2

[5] = tested on: Ovcar human ovarian Carcinoma; experiment: Cell proliferation assay, OvCar; assay type: cell-based; settings: OvCar cells
Procedure: as §1, §2

Structure (SMILES)	IC50 (CDK2) [µM]	further results
CC(C)n1cnc2c(NCc3ccc(F)cc3)nc(NCCN)nc21	–	IC50 [1]: 1.4 µg/mL (≈ 4.08 µM)
CSc1ccc(Nc2nc(Cl)nc3c2ncn3C(C)C)cc1	1.8	–
CC(C)n1cnc2c(NCc3ccc(Cl)cc3)nc(NCCCCCN)nc21	77.1	–
CC(C)n1cnc2c(NCc3ccc(Cl)cc3)nc(N(CCO)CCO)nc21 [listing 1 of 2 here]	–	inhibitory activity, Pup VSMC [2]: 0.3 µg/mL
CC(C)n1cnc2c(NCc3ccc(F)cc3)nc(NC[C@H](C)O)nc21	0.614	–
CC(C)n1cnc2c(NCc3ccc(Cl)cc3)nc(NC[C@@H](N)Cc3ccccc3)nc21	2.38	–
OCCNc1nc(NCc2ccccc2)nc2[nH]cnc12 [R1=ethanolamino; R2=H; R3=Benzylamino]	> 211	–
CC(C)n1cnc2c(NCc3ccc(Cl)cc3)nc(N[C@@H](C)CO)nc21	0.694	–
COc1ccc(CNc2nc(Cl)nc3c2ncn3Cc2ccccc2)cc1	> 158	IC50 [1]: > 70 µg/mL
COc1cccc(CNc2nc(Cl)nc3c2ncn3C(C)C)c1	2.71	–
CC(C)n1cnc2c(NCc3ccc(-c4ccc(C(F)(F)F)cc4)cc3)nc(N(CCO)CCO)nc21	1.17	–
CC(=O)C(C)n1cnc2c(NCc3ccc(F)cc3)nc(N(CCO)CCO)nc21 (stereo not shown)	26.4	–
COc1ccc(CNc2nc(Cl)nc3c2ncn3CCCCl)cc1	> 164	–
CC(C)n1cnc2c(NCc3ccc(Cl)cc3)nc(NCC(O)c3ccccc3)nc21 (stereo not shown)	0.183	IC50 [1]: > 5 µg/mL
COc1ccc(CNc2nc(N3CCOCC3)nc3c2ncn3C(C)C)cc1	–	IC50 (μg/ml) for Inhibition of Cell Proliferation, P 388 [3]: >5 µg/mL; IC50 (μg/ml) for Inhibition of Cell Proliferation, Panc 1 [4]: 5.5 µg/mL; IC50 (μg/ml) for Inhibition of Cell Proliferation, OvCar [5]: 4.0 µg/mL
CC(C)[C@H](CO)Nc1nc(NCc2ccc(Cl)cc2)c2ncn(C(C)C)c2n1	0.472	–
CC(C)[C@@H](CO)Nc1nc(NCc2ccc(F)cc2)c2ncn(C(C)C)c2n1	0.492	–
COc1ccc(CNc2nc(NCCO)nc3c2ncn3C(C)C)cc1	11.2	IC50 [1]: 43 µg/mL (≈ 121 µM)
COc1ccc(CNc2nc(Cl)nc3c2ncn3C(C)C)cc1	12.1	IC50 [1]: 77 µg/mL (≈ 232 µM)
COc1ccc(CNc2nc(N(CCO)CCO)nc3c2ncn3C)cc1	10.7	IC50 [1]: 48 µg/mL (≈ 129 µM)
CC(C)n1cnc2c(NCc3ccc(Cl)cc3)nc(NC[C@@H](C)O)nc21	1.15	–
CC(CO)Nc1nc(NCc2ccc(F)cc2)c2ncn(C(C)C)c2n1 (stereo not shown)	0.502	–

Structure (SMILES)	IC50 (CDK2) [µM]	further results
COc1ccc(CNc2nc(NCC(O)CN)nc3c2ncn3C(C)C)cc1 (stereo not shown)	1.56	IC50 [1]: 25 µg/mL (≈ 64.9 µM)
CC(C)n1cnc2c(Nc3ccc(-c4ccccc4)cc3)nc(N(CCO)CCO)nc21	1.39	–
CC(C)n1cnc2c(NCc3ccc(-c4ccccc4)cc3)nc(NCC(O)CO)nc21 (stereo not shown)	1.39	–
CC(C)n1cnc2c(NCc3ccc(Cl)cc3)nc(N[C@H](C)CO)nc21	0.934	–
CC(=O)C(C)n1cnc2c(NCc3ccc(Cl)cc3)nc(N(CCO)CCO)nc21 (stereo not shown)	85.5	–
CC(C)n1cnc2c(NCc3ccc(-c4cccs4)cc3)nc(N(CCO)CCO)nc21	1.1	–
COc1ccc(CNc2nc(NC(CO)CO)nc3c2ncn3C(C)C)cc1	–	IC50 [1]: 15 µg/mL (≈ 38.8 µM)
CSc1ccc(Nc2nc(N(CCO)CCO)nc3c2ncn3C(C)C)cc1	0.174	–
COc1ccc(CNc2nc(N(CCO)CCO)nc3c2ncn3CCO)cc1	1.24	IC50 [1]: 62 µg/mL (≈ 154 µM)
CC(C)n1cnc2c(Nc3ccccc3)nc(Cl)nc21 [R1=anilino; R2=isopropyl; R3=Cl]	3.48	–
CC(N)CNc1nc(NCc2ccc(F)cc2)c2ncn(C(C)C)c2n1 (stereo not shown)	1.34	–
CC(C)n1cnc2c(NCc3ccc(-c4ccccn4)cc3)nc(N(CCO)CCO)nc21	0.358	–
CC(C)n1cnc2c(NCc3ccc(F)cc3)nc(NC[C@@H]3CCCO3)nc21	1.64	–
COc1ccc(CNc2nc(NCCO)nc3c2ncn3C)cc1	12.2	IC50 [1]: 48 µg/mL (≈ 146 µM)
CC(N)CNc1nc(NCc2ccc(Cl)cc2)c2ncn(C(C)C)c2n1 (stereo not shown) [{2-[(2-aminopropyl)amino]-9-(methylethyl)purin-6-yl}[(4-chlorophenyl)methyl]amine]	–	inhibitory activity, Pup VSMC [2]: 0.1 µg/mL
CC(C)n1cnc2c(Nc3cccc(-c4ccc(C#N)cc4)c3)nc(N(CCO)CCO)nc21	1.09	–
COc1ccc(CNc2nc(N(CCO)CCO)nc3c2ncn3C(F)(C(F)(F)F)C(F)(F)F)cc1	76	–
COc1ccc(CNc2nc(N3CC=CC3)nc3c2ncn3C(C)C)cc1	2.74	IC50 [1]: 12.5 µg/mL (≈ 34.3 µM)
CC(C)n1cnc2c(NCc3ccc(Cl)cc3)nc(N(CCO)CCO)nc21 [listing 2 of 2 here]	0.296	–
CC(C)n1cnc2c(NCc3ccc(F)cc3)nc(N(CCO)CCO)nc21	0.386	IC50 [1]: 2.2 µg/mL (≈ 5.66 µM)
CC(C)n1cnc2c(NCC3CCCCC3)nc(Cl)nc21	3.25	–
CC(C)n1cnc2c(NCc3ccc(Cl)cc3)nc(N(CCN)CCO)nc21 [2-[(2-aminoethyl)(6-{[(4-chlorophenyl)methyl]amino}-9-(methylethyl)purin-2-yl)amino]ethan-1-ol]	–	inhibitory activity, Pup VSMC [2]: 0.3 µg/mL

Structure (SMILES)	IC50 (CDK2) [µM]	further results
CCC(CO)Nc1nc(NCc2ccc(F)cc2)c2ncn(C(C)C)c2n1 (stereo not shown)	–	IC50 [1]: 2.4 µg/mL (≈ 6.44 µM)
COc1ccc(CNc2nc(N(CCO)Cc3ccccc3)nc3c2ncn3C(C)C)cc1	2.24	–
CC(C)[C@H](CO)Nc1nc(NCc2ccc(F)cc2)c2ncn(C(C)C)c2n1	0.155	IC50 [1]: 2.7 µg/mL (≈ 6.99 µM)
CC(C)n1cnc2c(NCc3ccc(F)cc3)nc(NC[C@H]3CCCO3)nc21	1.51	–
FC(F)(F)n1cnc2c(NCc3ccc(Cl)cc3)nc(Cl)nc21	2.76	–
CC(C)n1cnc2c(NCc3ccc(F)cc3)nc(NC[C@@H](C)O)nc21	0.642	IC50 [1]: > 5 µg/mL
COc1ccc(CNc2nc(N(CC(C)O)CC(C)O)nc3c2ncn3C(C)C)cc1 (stereo not shown)	1.87	–
CC(C)n1cnc2c(NCc3ccc(-c4ccccc4)cc3)nc(N(CCO)CCO)nc21	1.34	–
COc1cccc(CNc2nc(N(CCO)CCO)nc3c2ncn3C(C)C)c1	1.25	–
COc1ccc(CNc2nc(N3CCCC(O)C3)nc3c2ncn3C(C)C)cc1 (stereo not shown)	2.52	–
COc1ccc(CNc2nc(Cl)nc3c2ncn3CCCC#N)cc1	> 168	–
CC(C)n1cnc2c(NCc3ccc(Cl)cc3)nc(N[C@@H](Cc3ccccc3)C(N)=O)nc21	2.31	–
COc1ccc(CNc2nc(Cl)nc3c2ncn3C)cc1 [R1=4-methoxybenzylamino; R2=Me; R3=Cl]	19.8	IC50 [1]: > 70 µg/mL
CC(C)n1cnc2c(NCc3ccc(Cl)cc3)nc(NCCCN)nc21	2.67	–
COc1ccc(CNc2nc(Cl)nc3c2ncn3C(F)(C(F)(F)F)C(F)(F)F)cc1	> 98.3	–
CC(C)n1cnc2c(NCc3ccc(Cl)cc3)nc(NCCN)nc21	0.973	–
CC(C)n1cnc2c(NCc3ccc4c(c3)OCO4)nc(N(CCO)CCO)nc21	1.93	–
Cn1cnc2c(NCCO)nc(NCCO)nc21 [R1=ethanolamino; R2=Me; R3=Ethanolamino]	> 238	IC50 [1]: > 70 µg/mL
CC(C)[C@@H](CO)Nc1nc(NCc2ccc(Cl)cc2)c2ncn(C(C)C)c2n1	0.124	–
CSc1cccc(Nc2nc(N(CCO)CCO)nc3c2ncn3C(C)C)c1	0.248	–
Cc1ccc(-c2ccc(CNc3nc(N(CCO)CCO)nc4c3ncn4C(C)C)cc2)cc1	1.3	–
CC(C)n1cnc2c(NCc3ccc(Cl)cc3)nc(NC[C@H](C)O)nc21	1.01	–

Reference: US6790958B2, “Purine inhibitors of cyclin dependent kinase 2 & IKBA” (priority 1996, dated 2004)
